Measurements as given in publication PMC11481871, “Discovery of GuaB inhibitors with efficacy against Acinetobacter baumannii infection” (mBio, 2024).
Values after ≈ are worked out from the molar mass of the structure shown. Where two headings read alike, the source gives them in different places.

Columns and labels:
[1] = molecular target: A. baumannii GuaB (Acinetobacter baumannii, UniProt D0CF46); assay: GuaB biochemical IC50
[2] = molecular target: S. aureus GuaB (Staphylococcus aureus, UniProt P99106); assay: GuaB biochemical IC50
[3] = molecular target: H. sapiens IMPDH2 (Homo sapiens, UniProt P12268); assay: IMPDH2 biochemical IC50
[4] = system: Staphylococcus aureus; assay: MIC, CLSI microdilution; assay type: cell-based; conditions: NRS 384 / USA300; Staphylococcus aureus USA300 NRS384; RPMI1640
[5] = system: Staphylococcus epidermidis; assay: MIC, CLSI microdilution; assay type: cell-based; conditions: Staphylococcus epidermidis RP62A (ATCC35984); RPMI1640
[6] = system: Mycobacterium avium; assay: MIC, CLSI microdilution; assay type: cell-based; conditions: 336 h; Mycobacterium avium (ATCC25291); 7H9 + OADC, 14 days
[7] = system: Mycobacterium tuberculosis H37Rv; assay: MIC, resazurin redox assay; assay type: cell-based; conditions: ATCC 27294 / H37Rv, 192 h, Mycobacterium tuberculosis H37Rv (ATCC27294)
[8] = system: Mycobacterium marinum; assay: MIC, CLSI microdilution; assay type: cell-based; conditions: 7H9 + OADC, 48 h
[9] = system: Mycobacterium smegmatis; assay: MIC, CLSI microdilution; assay type: cell-based; conditions: Mycolicibacterium smegmatis; Mycobacterium smegmatis mc2-155; 7H9 + OADC, 48 h
[10] = system: Enterococcus faecium; assay: MIC, CLSI microdilution; assay type: cell-based; conditions: Enterococcus faecium (ATCC700221); RPMI1640
[11] = system: Bacillus subtilis; assay: MIC, CLSI microdilution; assay type: cell-based; conditions: RPMI1640
[12] = system: Pseudomonas aeruginosa; assay: MIC, CLSI microdilution; assay type: cell-based; conditions: 20 h; Pseudomonas aeruginosa PAO1; M9 + casamino acids + glucose
[13] = system: Stenotrophomonas maltophilia; assay: MIC, CLSI microdilution; assay type: cell-based; conditions: 20 h; Stenotrophomonas maltophilia (ATCC700267); M9 + casamino acids + glucose
[14] = system: Escherichia coli; assay: MIC, CLSI microdilution; assay type: cell-based; conditions: 20 h; Escherichia coli UPEC CFT073; M9 + casamino acids + glucose
[15] = system: Citrobacter werkmanii; assay: MIC, CLSI microdilution; assay type: cell-based; conditions: 20 h; Citrobacter werkmanii (ATCC51114); M9 + casamino acids + glucose
[16] = system: Serratia marcescens; assay: MIC, CLSI microdilution; assay type: cell-based; conditions: 20 h; Serratia marcescens (ATCC29021); M9 + casamino acids + glucose
[17] = system: Enterobacter cloacae; assay: MIC, CLSI microdilution; assay type: cell-based; conditions: 20 h; Enterobacter cloacae (ATCC222); M9 + casamino acids + glucose
[18] = system: Proteus mirabilis; assay: MIC, CLSI microdilution; assay type: cell-based; conditions: 20 h; Proteus mirabilis (ATCC29906); M9 + casamino acids + glucose
[19] = system: A. baumannii 19606 (wild-type); assay: microbe, parasite or virus in culture; assay type: cell-based, Acinetobacter baumannii; conditions: for MIC: Acinetobacter baumannii
[20] = system: A. baumannii ΔadeJ (efflux-defective); assay: microbe, parasite or virus in culture; assay type: cell-based; conditions: Acinetobacter baumannii, read-out: Avg. MIC
[21] = system: A. baumannii ΔlpxA (LPS-null); assay: MIC on LPS-null A. baumannii; assay type: cell-based; conditions: Acinetobacter baumannii, read-out: Avg. MIC
[22] = system: Acinetobacter baumannii ATCC19606 GuaB mutants; assay: MIC on GuaBi-resistant A. baumannii 19606 guaB mutants; assay type: cell-based; conditions: for MIC: Acinetobacter baumannii, M9 media
[23] = system: 41 different cellular targets; assay: Secondary pharmacology panel (Cerep Eurofins); assay type: binding
[24] = molecular target: T1, hERG (Homo sapiens, UniProt Q12809); assay: hERG 2-point automatic patch clamp assay; assay type: cell-based
T1 construct: expressed in transfected cells; host or cells: HEK293
Method: All chemicals used in solution preparation were purchased from Sigma-Aldrich (St. Louis, MO) unless otherwise noted. Test article and positive control concentrations were prepared fresh daily by diluting stock solutions into a HEPES-buffered physiological saline solution (composition in mM): NaCl, 137; KCl, 4.0; CaCl2, 1.8; MgCl2, 1; HEPES, 10; glucose, 10; pH adjusted to 7.4 with NaOH. HEK293 cells were stably transfected with hERG cDNA and maintained in the culture medium with the appropriate selection pressure and antibiotics. All experiments were performed at room temperature. […]
In preparation for a recording session, intracellular solution was loaded into the intracellular compartments of the QPlate and cell suspension was pipetted into the extracellular compartments. After establishment of a whole-cell configuration, membrane currents were recorded using up to 48 parallel patch clamp amplifiers in the QPatch HT system. The current records were sampled at 2,000 Hz and low-pass Bessel filtered at 400 Hz. Onset and block of hERG current were measured using a stimulus voltage pattern consisting of a 500 ms prepulse to –40 mV (leakage subtraction), a 2-s activating pulse to +40 mV, followed by a 2-s test pulse to −40 mV. The pulse pattern was repeated continuously at 10-s intervals, from a holding potential of −80 mV. Peak tail current (upper panel) was measured during the −40 mV test pulse. Leakage current was calculated from the current amplitude evoked by the prepulse and subtracted from the total membrane current record. Data acquisition and analysis was performed using the QPatch Assay Software (Sophion Bioscience A/S, Denmark). Solubility of all compounds was measured using TurboSol in conjunction with the ion channel testing.

T1 sequence (Q12809 whole entry): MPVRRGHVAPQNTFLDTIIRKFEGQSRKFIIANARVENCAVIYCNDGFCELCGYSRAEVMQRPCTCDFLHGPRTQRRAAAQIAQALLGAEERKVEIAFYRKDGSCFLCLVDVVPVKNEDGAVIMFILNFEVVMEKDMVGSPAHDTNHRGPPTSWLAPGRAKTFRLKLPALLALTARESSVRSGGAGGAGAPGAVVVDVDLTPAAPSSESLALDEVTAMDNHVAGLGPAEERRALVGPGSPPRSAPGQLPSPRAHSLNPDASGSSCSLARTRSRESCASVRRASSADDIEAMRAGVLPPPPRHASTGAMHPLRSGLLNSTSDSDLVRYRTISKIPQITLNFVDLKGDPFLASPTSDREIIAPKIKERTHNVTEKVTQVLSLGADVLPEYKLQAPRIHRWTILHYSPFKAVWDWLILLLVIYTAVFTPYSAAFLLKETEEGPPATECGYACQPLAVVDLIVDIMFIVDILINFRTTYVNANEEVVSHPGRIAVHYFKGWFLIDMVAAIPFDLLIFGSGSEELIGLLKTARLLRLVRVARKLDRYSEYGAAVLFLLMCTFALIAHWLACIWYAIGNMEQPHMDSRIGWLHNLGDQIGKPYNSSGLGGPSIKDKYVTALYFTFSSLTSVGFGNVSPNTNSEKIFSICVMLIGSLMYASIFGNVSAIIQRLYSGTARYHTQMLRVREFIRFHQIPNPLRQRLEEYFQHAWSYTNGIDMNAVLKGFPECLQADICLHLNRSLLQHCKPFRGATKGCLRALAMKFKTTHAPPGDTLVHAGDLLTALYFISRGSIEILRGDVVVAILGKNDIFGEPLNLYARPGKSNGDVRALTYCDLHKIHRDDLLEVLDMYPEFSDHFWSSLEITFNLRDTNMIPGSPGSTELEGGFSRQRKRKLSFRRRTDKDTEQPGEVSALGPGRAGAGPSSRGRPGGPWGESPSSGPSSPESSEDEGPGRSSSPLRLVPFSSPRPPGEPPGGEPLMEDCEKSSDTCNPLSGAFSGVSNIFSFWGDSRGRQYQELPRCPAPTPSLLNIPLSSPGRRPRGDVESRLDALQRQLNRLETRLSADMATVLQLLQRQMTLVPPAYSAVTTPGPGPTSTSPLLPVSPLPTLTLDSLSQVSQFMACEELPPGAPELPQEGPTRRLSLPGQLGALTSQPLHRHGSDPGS
Chain of A. baumannii GuaB (D0CF46 entry or part of it): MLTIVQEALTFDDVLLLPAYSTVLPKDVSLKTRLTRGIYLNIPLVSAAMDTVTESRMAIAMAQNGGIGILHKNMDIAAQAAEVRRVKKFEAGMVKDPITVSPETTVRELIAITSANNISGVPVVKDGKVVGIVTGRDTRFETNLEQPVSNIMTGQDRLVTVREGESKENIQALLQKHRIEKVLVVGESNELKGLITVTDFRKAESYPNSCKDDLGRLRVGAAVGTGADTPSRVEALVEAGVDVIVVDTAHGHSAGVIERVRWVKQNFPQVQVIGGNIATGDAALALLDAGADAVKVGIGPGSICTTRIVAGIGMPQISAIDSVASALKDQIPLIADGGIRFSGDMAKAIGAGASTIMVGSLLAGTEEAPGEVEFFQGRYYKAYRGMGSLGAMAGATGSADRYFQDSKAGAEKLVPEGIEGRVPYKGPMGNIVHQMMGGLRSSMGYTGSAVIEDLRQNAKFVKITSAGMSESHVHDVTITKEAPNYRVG
Chain of S. aureus GuaB (P99106 whole entry): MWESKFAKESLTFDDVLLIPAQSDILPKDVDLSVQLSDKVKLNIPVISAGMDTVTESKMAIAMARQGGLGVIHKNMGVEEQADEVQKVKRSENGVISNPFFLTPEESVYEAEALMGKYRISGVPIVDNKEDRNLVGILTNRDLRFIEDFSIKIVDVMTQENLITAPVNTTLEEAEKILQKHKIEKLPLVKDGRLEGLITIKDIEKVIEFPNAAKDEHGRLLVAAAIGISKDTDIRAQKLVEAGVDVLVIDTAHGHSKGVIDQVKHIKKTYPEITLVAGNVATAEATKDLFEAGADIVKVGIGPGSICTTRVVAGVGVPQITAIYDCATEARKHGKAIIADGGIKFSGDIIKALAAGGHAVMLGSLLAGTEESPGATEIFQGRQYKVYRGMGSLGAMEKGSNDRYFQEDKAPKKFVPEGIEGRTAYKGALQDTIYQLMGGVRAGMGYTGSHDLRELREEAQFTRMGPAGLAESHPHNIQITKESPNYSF

SMILES: C[C@@H](Oc1ccc2ncc3c(c2c1)CCOC3)c1cncc(-c2nc(Cl)c[nH]2)c1 [G8, (R)-9-[1-[5-(4-chloro-1H-imidazol-2-yl)-3-pyridyl]ethoxy]-2,4-dihydro-1H-pyrano[3,4 c]quinoline]
- IC50 [1]: 0.14 nM
- IC50 [2]: 0.21 nM
- IC50 [3]: > 50000 nM
- MIC [4]: 0.01 µM (≈ 0.00407 µg/mL)
- MIC [5]: 0.004 µM (≈ 0.00163 µg/mL)
- MIC [6]: 0.04 µM
- MIC [7]: 0.2 µM (≈ 0.0814 µg/mL)
- MIC [8]: 0.03 µM
- MIC [9]: 0.02 µM
- MIC [10]: 0.03 µM (≈ 0.0122 µg/mL)
- MIC [11]: 0.05 µM (≈ 0.0203 µg/mL)
- MIC [12]: 50 µM
- MIC [13]: 5 µM
- MIC [14]: > 100 µM
- MIC [15]: > 100 µM
- MIC [16]: > 100 µM
- MIC [17]: > 100 µM
- MIC [18]: > 100 µM
- MIC ([19]; 24 h, M9 media + 100µM guanine, 24 hours, read-out: A.b.19606 Average CLSI MIC (n=3)): > 100 µM
- MIC ([19]; 24 h, M9 media, 24 hours, read-out: A.b.19606 Average CLSI MIC (n=3)): 0.4 µM (≈ 0.163 µg/mL)
- MIC ([19]; A. baumannii 19606 wild-type (Fig 3D), read-out: Avg. MIC): 0.39 µM (≈ 0.159 µg/mL)
- MIC ([19]; guaB allele wild-type, M9 media (cross-resistance table), read-out: A.b.19606 Average CLSI MIC (n=3)): 0.3 µM (≈ 0.122 µg/mL)
- GuaBi CLSI MIC fold change from parent strain ([19]; guaB allele wild-type): 1
- MIC [20]: 0.01 µM (≈ 0.00407 µg/mL)
- MIC [21]: 0.007 µM (≈ 0.00285 µg/mL)
- MIC ([22]; ATCC19606, read-out: A.b.19606 Average CLSI MIC (n=3), guaB allele P25A): 0.8 µM (≈ 0.325 µg/mL)
- MIC ([22]; ATCC19606, read-out: A.b.19606 Average CLSI MIC (n=3), guaB allele P25S): 0.6 µM (≈ 0.244 µg/mL)
- MIC ([22]; ATCC19606, read-out: A.b.19606 Average CLSI MIC (n=3), guaB allele Y445C): 0.2 µM (≈ 0.0814 µg/mL)
- MIC ([22]; ATCC19606, read-out: A.b.19606 Average CLSI MIC (n=3), guaB allele Y445N): 1.8 µM (≈ 0.732 µg/mL)
- MIC ([22]; ATCC19606, read-out: A.b.19606 Average CLSI MIC (n=3), guaB allele Y445S): 8.3 µM (≈ 3.38 µg/mL)
- GuaBi CLSI MIC fold change from parent strain ([22]; guaB allele P25A): 3.3
- GuaBi CLSI MIC fold change from parent strain ([22]; guaB allele P25S): 2.5
- GuaBi CLSI MIC fold change from parent strain ([22]; guaB allele Y445C): 1
- GuaBi CLSI MIC fold change from parent strain ([22]; guaB allele Y445N): 7
- GuaBi CLSI MIC fold change from parent strain ([22]; guaB allele Y445S): 32
- in vitro safety profile: promiscuity [23]: high promiscuity risk
- in vitro safety profile: selectivity [23]: off-target selectivity
- Promiscuity Risk ([23]; 50µM): 51%
- Selectivity Risk ([23]; 50µM): 17%
- Hits (>50% Binding) ([23]; 50µM, 41 targets): 21
- Hits (>75% Binding) ([23]; 50µM, 41 targets): 7
- hERG 10µM ([24]; 10µM): 6.3%
- hERG 50µM ([24]; 50µM): 50.1%
